The source made the active and inactive calls. The rule behind the calls is not given here.

The values below come from ChEMBL document CHEMBL1149054, “Isolation and structure of harzianum A: a new trichothecene from Trichoderma harzianum” (J Nat Prod, 1994).

Data set [1] is described as follows: Cytotoxicity against BHK cells upto 1 ug/ml. It is filed as cell-based, Mesocricetus auratus. Conditions: hamster.
Another data set deals with Micrococcus luteus. Kind of data set: Antimicrobial activity against Micrococcus luteus at 1 mg/ml. It counts as functional, organism-based.
A further data set concerns Escherichia coli. In words: Antimicrobial activity against Escherichia coli at 1 mg/ml. It is filed as functional, organism-based.
In another data set the test system is Staphylococcus aureus. In words: Antimicrobial activity against Staphylococcus aureus at 1 mg/ml. It counts as functional, organism-based.

As to `CC1=C[C@H]2O[C@@H]3C[C@@H](OC(=O)\C=C/C=C/C=C/C(=O)O)[C@](C)([C@@]2(C)CC1)[C@]31CO1` [HARZIANUM A], in data set [1], the Activity result is “Non-toxic”. In addition, the result in the data set with Micrococcus luteus, in the data set with Escherichia coli and in the data set with Staphylococcus aureus was inactive.
